pIC50: −log10 of the molar value. Values joined by “and” are separate entries in the source; they are usually repeats but may differ in a detail not shown here. Identical values can stand only once.
System: PANC-1 complex spheroid growth, percent test/control
Assay: Anticancer human tumor PANC-1 cell line growth inhibition [Asc];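 note: spheroids exposed to agents for 7 days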;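 for viability, T/C: percent viability relative to DMSO vehicle wells taken as 100%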
Conditions: for viability, T/C: stronger effect = lower value
Outline: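 Complex solid-tumor spheroids incorporating human endothelial and mesenchymal stem cells received single agents or combinations over half-log dilution ranges anchored to clinical Cmax.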

[1] = curve of first compound, second compound 0.0316 µM
[2] = curve of first compound, second compound 0.1 µM
[3] = curve of first compound, second compound 0.316 µM
[4] = curve of first compound, second compound 1 µM
[5] = second compound 0.0316 µM, first compound 0.0316 µM
[6] = second compound 0.0316 µM, first compound 0.1 µM
[7] = second compound 0.0316 µM, first compound 0.316 µM
[8] = second compound 0.0316 µM, first compound 1 µM
[9] = second compound 0.1 µM, first compound 0.0316 µM
[10] = second compound 0.1 µM, first compound 0.1 µM
[11] = second compound 0.1 µM, first compound 0.316 µM
[12] = second compound 0.1 µM, first compound 1 µM
[13] = second compound 0.316 µM, first compound 0.0316 µM
[14] = second compound 0.316 µM, first compound 0.1 µM
[15] = second compound 0.316 µM, first compound 0.316 µM
[16] = second compound 0.316 µM, first compound 1 µM
[17] = second compound 1 µM, first compound 0.0316 µM
[18] = second compound 1 µM, first compound 0.1 µM
[19] = second compound 1 µM, first compound 0.316 µM
[20] = second compound 1 µM, first compound 1 µM

COc1c(OCCCN2CCOCC2)ccc2c3n(c(=NC(=O)c4cnc(N)nc4)nc12)CCN3 + Cc1c(S(C)(=O)=O)c(-c2cc(F)cc(N3CCN(c4ccc(NS(=O)(=O)c5ccc(NC(CCN6CCC(C(=O)OCCCP(=O)(O)O)CC6)CSc6ccccc6)c(S(=O)(=O)C(F)(F)F)c5)cc4)CC3)c2)c(-c2ccc(Cl)cc2)n1C(C)C
pIC50 [1]: 6.27
pIC50 [2]: 6.38
pIC50 [3]: 6.50
pIC50 [4]: 6.52
pIC50 (curve of first compound, second compound 3.16 µM): 6.55
pIC50 (curve of first compound, second compound 10 µM): 6.58
viability, T/C (second compound 0.0316 µM, first compound 0.00316 µM): 103%
viability, T/C (second compound 0.0316 µM, first compound 0.01 µM): 98.5%
viability, T/C [5]: 95.7%
viability, T/C [6]: 73.7%
viability, T/C [7]: 69.4%
viability, T/C [8]: 32.6%
viability, T/C (second compound 0.1 µM, first compound 0.00316 µM): 98%
viability, T/C (second compound 0.1 µM, first compound 0.01 µM): 105%
viability, T/C [9]: 94.7%
viability, T/C [10]: 72.8%
viability, T/C [11]: 60.2%
viability, T/C [12]: 28.5%
viability, T/C (second compound 0.316 µM, first compound 0.00316 µM): 107%
viability, T/C (second compound 0.316 µM, first compound 0.01 µM): 106%
viability, T/C [13]: 91.1%
viability, T/C [14]: 58.2%
viability, T/C [15]: 59%
viability, T/C [16]: 25.7%
viability, T/C (second compound 1 µM, first compound 0.00316 µM): 104%
viability, T/C (second compound 1 µM, first compound 0.01 µM): 97.8%
viability, T/C [17]: 99.8%
viability, T/C [18]: 67.4%
viability, T/C [19]: 52.9%
viability, T/C [20]: 24.1%
viability, T/C (second compound 3.16 µM, first compound 0.00316 µM): 122%
viability, T/C (second compound 3.16 µM, first compound 0.01 µM): 106%
viability, T/C (second compound 3.16 µM, first compound 0.0316 µM): 86.8%
viability, T/C (second compound 3.16 µM, first compound 0.1 µM): 65.8%
viability, T/C (second compound 3.16 µM, first compound 0.316 µM): 53.8%
viability, T/C (second compound 3.16 µM, first compound 1 µM): 23.9%
viability, T/C (second compound 10 µM, first compound 0.00316 µM): 171%
viability, T/C (second compound 10 µM, first compound 0.01 µM): 198%
viability, T/C (second compound 10 µM, first compound 0.0316 µM): 131%
viability, T/C (second compound 10 µM, first compound 0.1 µM): 78.1%
viability, T/C (second compound 10 µM, first compound 0.316 µM): 52.5%
viability, T/C (second compound 10 µM, first compound 1 µM): 31.7%

NC(=O)C(=Cn1cnc(-c2cc(C(F)(F)F)cc(C(F)(F)F)c2)n1)c1cncnc1
viability, T/C (compound 0.000949 µM): 99.7% and 95.2% and 104%
viability, T/C (compound 0.003 µM): 88.1% and 92.4% and 96.4%
viability, T/C (compound 0.00949 µM): 92% and 89% and 111%
viability, T/C (compound 0.03 µM): 89.8% and 103% and 102%
viability, T/C (compound 0.0949 µM): 113% and 114% and 130%
viability, T/C (compound 0.3 µM): 92.5% and 100% and 118%
pIC50 (curve of compound): < 6.52

C=CC(=O)N1CCN(c2nc(=O)n(-c3c(C)ccnc3C(C)C)c3nc(-c4c(O)cccc4F)c(F)cc23)C(C)C1 (stereo not drawn) + CNC(C)C(=O)NC1CN(S(=O)(=O)c2cccc(S(=O)(=O)N3CCC4CCC(C(=O)NC(c5ccccc5)c5ccccc5)N4C(=O)C(NC(=O)C(C)NC)C3)c2)CCC2CCC(C(=O)NC(c3ccccc3)c3ccccc3)N2C1=O
pIC50 (curve of first compound, second compound 0.00316 µM): < 5.00
pIC50 (curve of first compound, second compound 0.01 µM): < 5.00
pIC50 [1]: < 5.00
pIC50 [2]: < 5.00
pIC50 [3]: < 5.00
pIC50 [4]: < 5.00
viability, T/C (second compound 0.00316 µM, first compound 0.0316 µM): 103%
viability, T/C (second compound 0.00316 µM, first compound 0.1 µM): 88.3%
viability, T/C (second compound 0.00316 µM, first compound 0.316 µM): 103%
viability, T/C (second compound 0.00316 µM, first compound 1 µM): 92.3%
viability, T/C (second compound 0.00316 µM, first compound 3.16 µM): 118%
viability, T/C (second compound 0.00316 µM, first compound 10 µM): 97.5%
viability, T/C (second compound 0.01 µM, first compound 0.0316 µM): 100%
viability, T/C (second compound 0.01 µM, first compound 0.1 µM): 92.8%
viability, T/C (second compound 0.01 µM, first compound 0.316 µM): 102%
viability, T/C (second compound 0.01 µM, first compound 1 µM): 97%
viability, T/C (second compound 0.01 µM, first compound 3.16 µM): 101%
viability, T/C (second compound 0.01 µM, first compound 10 µM): 95%
viability, T/C [5]: 91.2%
viability, T/C [6]: 94.1%
viability, T/C [7]: 102%
viability, T/C [8]: 95.8%
viability, T/C (second compound 0.0316 µM, first compound 3.16 µM): 105%
viability, T/C (second compound 0.0316 µM, first compound 10 µM): 93.3%
viability, T/C [9]: 102%
viability, T/C [10]: 96.2%
viability, T/C [11]: 100%
viability, T/C [12]: 100%
viability, T/C (second compound 0.1 µM, first compound 3.16 µM): 89.7%
viability, T/C (second compound 0.1 µM, first compound 10 µM): 88.6%
viability, T/C [13]: 98.2%
viability, T/C [14]: 92.3%
viability, T/C [15]: 112%
viability, T/C [16]: 96.4%
viability, T/C (second compound 0.316 µM, first compound 3.16 µM): 86.2%
viability, T/C (second compound 0.316 µM, first compound 10 µM): 94.2%
viability, T/C [17]: 94.7%
viability, T/C [18]: 91.2%
viability, T/C [19]: 109%
viability, T/C [20]: 94.2%
viability, T/C (second compound 1 µM, first compound 3.16 µM): 97.1%
viability, T/C (second compound 1 µM, first compound 10 µM): 96.3%

C=C(F)C(=O)N1CCN(c2nc(OCC3CCCN3C)nc3c2CCN(c2cccc4cccc(Cl)c24)C3)CC1CC#N (stereo not drawn)
viability, T/C (compound 0.0316 µM): 108% and 97% and 96.2%
viability, T/C (compound 0.1 µM): 105% and 86% and 95%
viability, T/C (compound 0.316 µM): 94.3% and 104% and 98%
viability, T/C (compound 1 µM): 101% and 96.9% and 96.6%
viability, T/C (compound 3.16 µM): 97.6% and 102% and 90.8%
viability, T/C (compound 10 µM): 29.9% and 33.2% and 31.5%
pIC50 (curve of compound): 5.15 and 5.13 and 5.16

From PubChem BioAssay AID1963435 (Molecular Pharmacology Branch, DTP, NCI, 2024)
